# Assay results as given in article PMC11327196, “A phase 1 study to assess the absolute bioavailability, mass balance, pharmacokinetics, metabolism, and excretion of [^14C]-mobocertinib, an oral inhibitor of EGFR exon 20 insertion mutations, in healthy participants” (Investigational New Drugs, 2024).
# Assay: Period 1 absolute bioavailability study: plasma PK after single oral 160 mg mobocertinib capsules
# Format: in vivo, human
# Experimental: This was a two-period, open-label, single-dose phase 1 study (NCT03811834) conducted at one clinical site (Celerion, Lincoln, Nebraska, USA) in healthy male participants. The primary objective of Period 1 was to determine the absolute bioavailability of mobocertinib following a single oral dose of 160 mg mobocertinib as capsules and a single intravenous (IV) microdose of 50 µg (~ 2 µCi) [^14C]-mobocertinib. The primary objectives of Period 2 were to (1) assess the cumulative excretion of total radioactivity in urine and feces (mass balance); (2) assess the metabolite profile of mobocertinib in plasma, urine, and feces; and (3) characterize the PK of mobocertinib, AP32960, and AP32914 in plasma, whole blood, and urine, and total radioactivity concentration equivalents in plasma and whole blood following a single oral dose of 160 mg (~ 100 µCi) [^14C]-mobocertinib as an oral solution. A sample size of 6 healthy males was selected without statistical considerations and deemed adequate to meet the study objectives. Furthermore, the sample size was limited based on clinical considerations for human ADME studies and to limit exposure to radioactivity.
# On Day 1 of Period 1, following an overnight fast of at least 10 h, participants received a single 160 mg dose of non-radiolabeled mobocertinib as capsules. At 3.75 h post oral dosing (i.e., 15 min before the median oral tmax of ~ 4 h), participants received a nominal dose of 50 µg (~ 2 µCi) [^14C]-mobocertinib as a 15-minute IV infusion. However, due to nonspecific binding of [^14C]-mobocertinib to the dosing syringe and tubing, actual doses administered ranged from 36.8 to 38.7 µg (1.47 to 1.55 µCi). Participants were required to stay in the clinic from Day − 1 through at least the 96-hour blood draw (Day 5) or until a discharge criterion was met (i.e., ≥ 80% of the total administered radioactive dose was recovered in urine and fecal samples or excretion of radioactivity in urine and feces combined had declined to ≤ 1% of the total administered dose per day for ≥ 2 consecutive intervals), up to a maximum of 7 days postdose (Day 8). Blood samples for the measurement of plasma mobocertinib, AP32960, and AP32914 concentrations were collected predose and at 0.5, 1, 2, 3, 4, 5, 6, 8, 12, 24, 36, 48, 72, and 96 h after oral administration. Additional blood samples to determine [^14C]-total radioactivity, [^14C]-mobocertinib, [^14C]-AP32960, and [^14C]-AP32914 in plasma were collected at 3.75 h after oral dosing (i.e., predose for [^14C] assessments), at the end of the IV infusion, and at 10, 20, and 30 min, and 1, 2, 4, 8, 20, 32, 44, 68, and 92 h after the end of infusion. […] Urine and feces were collected before oral dosing (− 48–0 h); urine was collected over 0–3.75 h, 3.75–12 h and 12–24 h after oral dosing; feces were collected from 0 to 3.75 h and 3.75–24 h after oral dosing; both urine and feces were then collected over 24-hour intervals until a discharge criterion was met, or up to Day 8 (168 h postdose).
# Plasma, whole blood, and urine samples were assayed for mobocertinib, AP32960, and AP32914 concentrations using liquid chromatography-tandem mass spectrometry (Q2 Solutions, Ithaca, New York, USA). The analytical range for each analyte was 0.250 to 500 ng/mL in whole blood and plasma, and 1.00 to 1000 ng/mL in urine. […] Urine and fecal samples were assayed for total radioactivity following the IV dose of [^14C]-mobocertinib in Period 1, and whole blood, plasma, urine, and fecal samples were assayed for total radioactivity following the oral dose of [^14C]-mobocertinib in Period 2 using liquid scintillation counting (LSC; Celerion, Lincoln, Nebraska, USA; LLOQs: Period 1 urine: 0.115–0.118 ng eq/g, feces: 0.720–0.759 ng eq/g; Period 2 whole blood: 87.3–112 ng eq/g, plasma: 116–132 ng eq/mL, urine: 37.8–46.8 ng eq/g, feces: 110–336 ng eq/g across participants). […]
# [1] = Period 1, single oral 160 mg mobocertinib capsules, geometric mean (geometric CV%)
smiles,measurement,setting,value
C=CC(=O)Nc1cc(Nc2ncc(C(=O)OC(C)C)c(-c3cn(C)c4ccccc34)n2)c(OC)cc1N(C)CCN(C)C [Mobocertinib],CL/F,[1],152 (64.9) L/h
same,Cmax,[1],56.7 (52.2) ng/mL
same,tmax,"Period 1, single oral 160 mg mobocertinib capsules, median (range)",5.0 (4.0–6.0) h
same,bioavailability,"male, human, Period 1, oral 160 mg capsules AUC∞ vs dose-normalized IV microdose AUC∞, 90% CI 22.4–60.2%, read-out: geometric mean absolute oral bioavailability",36.7%
same,AUC(0-inf),"male, human, Period 1, single oral 160 mg mobocertinib capsules, geometric mean (geometric CV%)",1050 ng·h/mL
same,Vd/F,"male, human, Period 1, single oral 160 mg mobocertinib capsules, geometric mean (geometric CV%), read-out: Vz/F",5030 L
same,half-life,"male, human, Period 1, single oral 160 mg mobocertinib capsules, geometric mean (geometric CV%), read-out: t1/2z (converted)",1370 min
